The text below walks through data of patent US8846947B2, “Benzimidazoles and related analogs as sirtuin modulators” (GlaxoSmithKline LLC, priority 2008, dated 2014).

For this assay, the target named is T1, SIRT1 (Homo sapiens, UniProt Q96EB6).
T1 sequence (Q96EB6 1-747): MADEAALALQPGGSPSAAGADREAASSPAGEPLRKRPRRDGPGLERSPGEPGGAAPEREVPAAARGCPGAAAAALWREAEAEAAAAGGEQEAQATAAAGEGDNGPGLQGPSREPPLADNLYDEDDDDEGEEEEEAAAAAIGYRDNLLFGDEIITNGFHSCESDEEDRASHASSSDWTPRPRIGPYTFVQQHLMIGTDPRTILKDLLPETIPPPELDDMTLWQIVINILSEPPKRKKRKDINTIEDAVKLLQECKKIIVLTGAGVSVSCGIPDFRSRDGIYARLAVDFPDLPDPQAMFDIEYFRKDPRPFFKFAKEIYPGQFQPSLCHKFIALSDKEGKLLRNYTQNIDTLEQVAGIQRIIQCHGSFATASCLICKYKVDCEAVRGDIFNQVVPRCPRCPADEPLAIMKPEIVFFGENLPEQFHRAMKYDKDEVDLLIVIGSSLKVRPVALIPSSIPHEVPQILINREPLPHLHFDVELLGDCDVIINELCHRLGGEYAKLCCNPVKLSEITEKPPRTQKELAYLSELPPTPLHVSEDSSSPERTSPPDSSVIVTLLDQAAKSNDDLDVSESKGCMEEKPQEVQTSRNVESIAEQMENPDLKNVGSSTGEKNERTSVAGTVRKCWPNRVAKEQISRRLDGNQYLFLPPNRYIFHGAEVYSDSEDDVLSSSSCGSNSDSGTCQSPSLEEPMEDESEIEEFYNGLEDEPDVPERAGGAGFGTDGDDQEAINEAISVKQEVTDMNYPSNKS
Description: Mass spectrometry based SIRT1 deacetylase activation assay (acetylated p53-derived peptide substrate). Format: biochemical.
As to `Cc1nc(C)c(-c2nc3c(C(=O)Nc4ccncc4)cccc3[nH]2)s1` [Compound 318], the EC1.5 entry is on record as “A (EC1.5<1.0 uM)” and the “Fold Act. (percent maximum fold activation)” value was “A (Fold activation >200%)”.

For the compound `Cc1nc(C)c(-c2nc3c(C(=O)Nc4cccnc4)cccc3[nH]2)s1` [Compound 319], the EC1.5 entry is “A (EC1.5<1.0 uM)” and the “Fold Act. (percent maximum fold activation)” value is listed as “A (Fold activation >200%)”.

As to `Cc1nc(C)c(-c2nc3c(C(=O)Nc4ccccn4)cccc3[nH]2)s1` [Compound 320], the EC1.5 result was “B (EC1.5 1-25 uM)” and the “Fold Act. (percent maximum fold activation)” value was “A (Fold activation >200%)”.

Take `O=C(Nc1ncc(F)s1)c1cccc2[nH]c(-c3ccc(Cl)cc3C(F)(F)F)nc12` [Compound 321]: the EC1.5 result is “A (EC1.5<1.0 uM)” and the “Fold Act. (percent maximum fold activation)” value was “A (Fold activation >200%)”.

As for `O=C(Nc1cc[n+]([O-])cc1)c1cccc2[nH]c(-c3cc(F)ccc3C(F)(F)F)nc12` [Compound 322], the EC1.5 result is “A (EC1.5<1.0 uM)” and the “Fold Act. (percent maximum fold activation)” value is “A (Fold activation >200%)”.

In the case of `O=C(Nc1ccccn1)c1cccc2[nH]c(-c3cc(F)ccc3C(F)(F)F)nc12` [Compound 323], the EC1.5 entry is recorded as “A (EC1.5<1.0 uM)” and the “Fold Act. (percent maximum fold activation)” value was “A (Fold activation >200%)”.

Take `O=C(Nc1nccs1)c1cccc2[nH]c(-c3cccc(OCC(O)CO)c3)nc12` (stereo not shown) [Compound 324, 2-(3-(2,3-dihydroxypropoxy)phenyl)-N-(thiazol-2-yl)-1H-benzo[d]imidazole-4-carboxamide]: the EC1.5 entry is “A (EC1.5<1.0 uM)” and the “Fold Act. (percent maximum fold activation)” value is “A (Fold activation >200%)”.

As to `O=C(Nc1nccs1)c1cccc2[nH]c(-c3ccc(OCC(O)CO)cc3)nc12` (stereo not shown) [Compound 325], the EC1.5 entry is “A (EC1.5<1.0 uM)” and the “Fold Act. (percent maximum fold activation)” value was “A (Fold activation >200%)”.

For `O=C(Nc1nccs1)c1cccc2[nH]c(-c3ccccc3OCC(O)CO)nc12` (stereo not shown) [Compound 326], the EC1.5 result was “B (EC1.5 1-25 uM)” and the “Fold Act. (percent maximum fold activation)” value is “A (Fold activation >200%)”.

As for `Cn1nc(C(F)(F)F)c(-c2nc3c(C(=O)Nc4ccccn4)cccc3[nH]2)c1Cl` [Compound 327], the EC1.5 entry was “A (EC1.5<1.0 uM)” and the “Fold Act. (percent maximum fold activation)” value is “A (Fold activation >200%)”.

`Cn1nc(C(F)(F)F)c(-c2nc3c(C(=O)Nc4cccnc4)cccc3[nH]2)c1Cl` [Compound 328]: the EC1.5 result is given as “A (EC1.5<1.0 uM)” and the “Fold Act. (percent maximum fold activation)” value was “A (Fold activation >200%)”.

Consider `O=C(Nc1cccc[n+]1[O-])c1cccc2[nH]c(-c3ccccc3C(F)(F)F)nc12` [Compound 329, 2-(2-(2-(trifluoromethyl)phenyl)-1H-benzo[d]imidazole-4-carboxamido)pyridine 1-oxide], for which the EC1.5 entry is “B (EC1.5 1-25 uM)” and the “Fold Act. (percent maximum fold activation)” value is recorded as “A (Fold activation >200%)”.

As to `O=C(Nc1cccc[n+]1[O-])c1cccc2[nH]c(-c3ccc(Cl)cc3C(F)(F)F)nc12` [Compound 330], the EC1.5 result is on record as “B (EC1.5 1-25 uM)” and the “Fold Act. (percent maximum fold activation)” value was “A (Fold activation >200%)”.

Regarding `O=C(Nc1ccc[n+]([O-])c1)c1cccc2[nH]c(-c3ccc(Cl)cc3C(F)(F)F)nc12` [Compound 331], the EC1.5 result was “A (EC1.5<1.0 uM)” and the “Fold Act. (percent maximum fold activation)” value is recorded as “A (Fold activation >200%)”.

Turning to `O=C(Nc1cccc2[nH]c(-c3cccc(C(F)(F)F)c3)nc12)c1ccccn1` [Compound 333], the EC1.5 result is reported as “B (EC1.5 1-25 uM)” and the “Fold Act. (percent maximum fold activation)” value is listed as “A (Fold activation >200%)”.

Consider `O=C(Nc1cccc2[nH]c(-c3cccc(C(F)(F)F)c3)nc12)c1cccnc1` [Compound 334], for which the EC1.5 entry is “B (EC1.5 1-25 uM)” and the “Fold Act. (percent maximum fold activation)” value is on record as “A (Fold activation >200%)”.

Consider `O=C(Nc1cccc2[nH]c(-c3cccc(C(F)(F)F)c3)nc12)c1cnccn1` [Compound 335], for which the EC1.5 result is recorded as “B (EC1.5 1-25 uM)” and the “Fold Act. (percent maximum fold activation)” value is recorded as “A (Fold activation >200%)”.

`O=C(Nc1ccc[n+]([O-])c1)c1cccc2[nH]c(-c3ccccc3C(F)(F)F)nc12` [Compound 336]: the EC1.5 result is “A (EC1.5<1.0 uM)” and the “Fold Act. (percent maximum fold activation)” value is listed as “A (Fold activation >200%)”.

`O=C(Nc1cc[n+]([O-])cc1)c1cccc2[nH]c(-c3ccccc3C(F)(F)F)nc12` [Compound 337]: the EC1.5 result is on record as “A (EC1.5<1.0 uM)” and the “Fold Act. (percent maximum fold activation)” value is given as “A (Fold activation >200%)”.

For `O=C(Nc1cc[n+]([O-])cc1)c1cccc2[nH]c(-c3ccc(Cl)cc3C(F)(F)F)nc12` [Compound 338], the EC1.5 result was “A (EC1.5<1.0 uM)” and the “Fold Act. (percent maximum fold activation)” value is “A (Fold activation >200%)”.

Turning to `O=C(Nc1nccs1)c1cccc2[nH]c(-c3ccc(OCCN4CCOCC4)cc3)nc12` [Compound 339], the EC1.5 entry is given as “A (EC1.5<1.0 uM)” and the “Fold Act. (percent maximum fold activation)” value is listed as “A (Fold activation >200%)”.

Consider `O=C(Nc1nccs1)c1cccc2[nH]c(-c3ccccc3OCCN3CCOCC3)nc12` [Compound 340], for which the EC1.5 entry was “A (EC1.5<1.0 uM)” and the “Fold Act. (percent maximum fold activation)” value is on record as “A (Fold activation >200%)”.

Regarding `O=C(Nc1nccs1)c1cncc2[nH]c(-c3ccccc3C(F)(F)F)nc12` [Compound 341, N-(thiazol-2-yl)-2-(2-(trifluoromethyl)phenyl)-3H-imidazo[4,5-c]pyridine-7-carboxamide], the EC1.5 result is recorded as “A (EC1.5<1.0 uM)” and the “Fold Act. (percent maximum fold activation)” value is recorded as “A (Fold activation >200%)”.

Regarding `O=C(Nc1ccccn1)c1cccc2[nH]c(-c3ccc(-c4nnn[nH]4)cc3)nc12` [Compound 342], the EC1.5 result is on record as “A (EC1.5<1.0 uM)” and the “Fold Act. (percent maximum fold activation)” value was “A (Fold activation >200%)”.

As for `Cc1cnc(NC(=O)c2cccc3[nH]c(-c4ccccc4C(F)(F)F)nc23)s1` [Compound 343], the EC1.5 result is listed as “A (EC1.5<1.0 uM)” and the “Fold Act. (percent maximum fold activation)” value is reported as “A (Fold activation >200%)”.

In the case of `Cc1nc(NC(=O)c2cccc3[nH]c(-c4ccccc4C(F)(F)F)nc23)sc1C` [Compound 344], the EC1.5 entry was “A (EC1.5<1.0 uM)” and the “Fold Act. (percent maximum fold activation)” value is on record as “A (Fold activation >200%)”.

For the compound `Cc1cc(C)nc(NC(=O)c2cccc3[nH]c(-c4ccccc4C(F)(F)F)nc23)c1` [Compound 345], the EC1.5 result was “A (EC1.5<1.0 uM)” and the “Fold Act. (percent maximum fold activation)” value is reported as “A (Fold activation >200%)”.

On to `Cc1cnc(NC(=O)c2cccc3[nH]c(-c4ccc(Cl)cc4C(F)(F)F)nc23)s1` [Compound 346], for which the EC1.5 result was “A (EC1.5<1.0 uM)” and the “Fold Act. (percent maximum fold activation)” value is “A (Fold activation >200%)”.

In the case of `O=C(Nc1nccs1)c1cccc2[nH]c(-c3cccc(OCCN4CCOCC4)c3)nc12` [Compound 347], the EC1.5 result is given as “B (EC1.5 1-25 uM)” and the “Fold Act. (percent maximum fold activation)” value is recorded as “A (Fold activation >200%)”.

As for `O=C(Nc1nccs1)c1cccc2[nH]c(-c3ccc(-c4nnn[nH]4)cc3)nc12` [Compound 348], the EC1.5 result was “A (EC1.5<1.0 uM)” and the “Fold Act. (percent maximum fold activation)” value is given as “A (Fold activation >200%)”.

Turning to `O=C(Nc1cccnc1)c1cccc2[nH]c(-c3ccc(-c4nnn[nH]4)cc3)nc12` [Compound 349], the EC1.5 entry is recorded as “A (EC1.5<1.0 uM)” and the “Fold Act. (percent maximum fold activation)” value is reported as “B (Fold Activation <200%)”.

Take `O=C(Nc1cccnc1)c1cccc2[nH]c(-c3cccc(CN4CCOCC4)c3)nc12` [Compound 350]: the EC1.5 result is given as “B (EC1.5 1-25 uM)” and the “Fold Act. (percent maximum fold activation)” value was “A (Fold activation >200%)”.

On to `O=C(Nc1nccs1)c1cccc2[nH]c(-c3cccc(CN4CCCC4)c3)nc12` [Compound 351], for which the EC1.5 entry is reported as “B (EC1.5 1-25 uM)” and the “Fold Act. (percent maximum fold activation)” value is “A (Fold activation >200%)”.

On to `O=C(Nc1cccnc1)c1cccc2[nH]c(-c3cccc(CN4CCCC4)c3)nc12` [Compound 352], for which the EC1.5 entry is “B (EC1.5 1-25 uM)” and the “Fold Act. (percent maximum fold activation)” value was “A (Fold activation >200%)”.

On to `O=C(NC1CCOC1=O)c1cccc2[nH]c(-c3ccccc3C(F)(F)F)nc12` (stereo not shown) [Compound 353], for which the EC1.5 result is on record as “C (EC1.5 >25 uM)” and the “Fold Act. (percent maximum fold activation)” value is “B (Fold Activation <200%)”.

Regarding `Cc1cc(NC(=O)c2cccc3[nH]c(-c4ccccc4C(F)(F)F)nc23)n(C)n1` [Compound 354], the EC1.5 entry was “A (EC1.5<1.0 uM)” and the “Fold Act. (percent maximum fold activation)” value was “A (Fold activation >200%)”.

As to `O=C(NC1CCOC1=O)c1cccc2[nH]c(-c3ccc(Cl)cc3C(F)(F)F)nc12` (stereo not shown) [Compound 355], the EC1.5 result is “B (EC1.5 1-25 uM)” and the “Fold Act. (percent maximum fold activation)” value is given as “A (Fold activation >200%)”.

Regarding `Cc1cc(NC(=O)c2cccc3[nH]c(-c4ccc(Cl)cc4C(F)(F)F)nc23)n(C)n1` [Compound 356], the EC1.5 entry is “A (EC1.5<1.0 uM)” and the “Fold Act. (percent maximum fold activation)” value is on record as “A (Fold activation >200%)”.
